The test system of one series is E. coli. To be noted: found by Kimura et al.; cited from earlier work.
For series [1], the system named is Escherichia coli type III secretion. To be noted: literature; cited from earlier work.
For series [2], the system named is Y. pseudotuberculosis T3SS (YopE secretion). It counts as cell-based, Yersinia pseudotuberculosis.
For series [3], the system named is Yersinia pestis type III secretion. Particulars: cited from earlier work.
The subject of series [4] is Y. pseudotuberculosis T3SS. It counts as cell-based, Yersinia pseudotuberculosis.
Series [5] concerns wildtype Y. pseudotuberculosis IP2666. It is filed as cell-based, Yersinia pseudotuberculosis.

Like-named read-outs stand apart in the source and are kept apart here.

`C/C=C\C=C\[C@@H]1O[C@](O)([C@H](CC)C(=O)NC/C=C/C=C(\C)[C@@H](OC)[C@@H](C)[C@@H]2O[C@H](/C=C/C=C/C=C(\C)C(=O)c3c(O)ccn(C)c3=O)[C@H](O)[C@@H]2O)[C@H](O)[C@H](O)C1(C)C` [Aurodox]: the “concentrations cytotoxic to E. coli” value with E. coli is on record as “above 12.5 μM”. Also, the “in vitro type III secretion by Escherichia coli” value in series [1] is “reduce”. In addition, in series [2] (12.5 μM, highest concentration used), the “inhibition of YopE secretion” value was “did not significantly inhibit”.

Consider `CC(Oc1ccc(Cl)cc1Cl)C(=O)NCc1ccc2c(c1)OCO2` (stereo not drawn) [MBX 1641], for which the “in vitro type III secretion by Yersinia pestis” value in series [3] is on record as “reduce”.

Consider `C/C=C(\C)[C@H](O)[C@H](C)/C=C(C)/C=C/C/C(C)=C/Cc1nc(OC)cc(O)c1C` [Mer-A 2026B], for which the “YopM translocation into CHO cells” value in series [4] is recorded as “significantly reduced”. Besides, the “T3SS inhibition (YopM translocation into CHO cells)” value in series [4] (71 µM) is 75%. Also, in series [5], the “Y. pseudotuberculosis in vitro growth (OD600 compound-treated/OD600 DMSO-treated)” value is on record as “do not affect” and the “Yersinia growth by optical density” value was “did not inhibit”. Further, in series [2], the “inhibition of YopE secretion at lower concentrations” value is on record as “dose dependent decrease in inhibition” and the “reduction of secretion of the T3SS effector YopE” value was found to be 45%.

For the compound `C/C=C(\C)[C@H](O)[C@H](C)/C=C(C)/C=C/C/C(C)=C/Cc1nc(OC)c(OC)c(O)c1C` [Piericidin A1], the YopM-β-lactamase translocation entry in series [4] (concentrations of 36 μM and greater) is on record as “significantly diminished”. In addition, the “Y. pseudotuberculosis in vitro growth (OD600 compound-treated/OD600 DMSO-treated)” value is “do not affect” in series [5] (143 μM, 23° C., continuous shaking) and “do not affect” in series [5] (143 μM, 37° C., continuous shaking). Besides, the “Yersinia growth by optical density” value in series [5] (26° C. and 37° C., all tested concentrations up to 143 μM) was “did not inhibit”. Also, the “reduction of secretion of the T3SS effector YopE” value in series [2] (71 μM, 2 hours at 37° C., relative to DMSO) amounted to 65%.
